Here are results for six compounds from patent US10428055B2, “Substituted piperidines having GPR119 agonistic activity” (DONG-A ST CO., LTD., priority 2014, dated 2019).

In one experiment the target is T1, Human GPR119 (Homo sapiens, UniProt Q8TDV5).
T1 construct: host or cells: HEK293 (ATCC)
T1 sequence (Q8TDV5 1-335): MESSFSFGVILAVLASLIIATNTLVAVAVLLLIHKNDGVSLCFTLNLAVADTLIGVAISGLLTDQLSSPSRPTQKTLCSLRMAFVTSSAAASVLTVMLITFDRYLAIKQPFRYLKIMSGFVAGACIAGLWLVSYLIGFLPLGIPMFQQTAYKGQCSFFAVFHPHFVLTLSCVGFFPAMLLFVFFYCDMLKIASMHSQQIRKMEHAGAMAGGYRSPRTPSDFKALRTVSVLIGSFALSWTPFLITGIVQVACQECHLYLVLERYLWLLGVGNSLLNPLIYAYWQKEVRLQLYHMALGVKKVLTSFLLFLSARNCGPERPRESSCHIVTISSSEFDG
The experiment can be described thus: Human GPR119 activation assay (cAMP, HTRF). The format is cell-based. The following applies: 1 h, HEK293 cells transiently expressing human GPR119, relative to maximum effect of OEA, read-out: hGPR119 activation ability (cAMP assay) Relative Response % vs OEA; for Emax at 0.001 µM: 1 nM; for Emax at 0.01 µM: 10 nM. The procedure, abridged: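 HEK293 cells transiently overexpressing human GPR119 (48 h), pre-treated 10 min then exposed 60 min to compound in KRBH with 11.1 mM glucose, 0.1% BSA and 0.5 mM IBMX. Intracellular cAMP quantified by HTRF; activation expressed as % of maximal oleoylethanolamide effect from multiple-concentration testing.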
In general terms: Time-resolved FRET reads energy transfer from a long-lived donor to a nearby acceptor.

The next experiment deals with C57BL/6 mouse. The experiment is described as follows: Assessment of glucose tolerance improvement effect in mouse. The format is in vivo. Conditions: 2 h; 10 mg/kg oral, 30 min before oral glucose 2 g/kg; male C57BL/6 mouse; blood glucose AUC. As for the experimental part:
<Experimental Example 2>Assessment of glucose tolerance improvement effect in mouse
As one of anti-diabetic effect indicators, the glucose tolerance improvement effect of the above compounds was evaluated in 7-week male laboratory mouse (C57BL/6 mouse), as the effect of improving postprandial glycemic control ability.
The laboratory mouse was fasted from the day before the experiment for 16-17 hours. The compound of the present invention was orally administered 30 minutes before administrating glucose, and after 30 minutes, a glucose solution (2 g/kg/10 ml) was orally administered. A drug was prepared by suspending in a 10% Gelucire solution. At the times immediately before drug administration, immediately before glucose solution administration, 15 minutes, 30 minutes, 60 minutes, 90 minutes, and 120 minutes after glucose administration, the whole blood glucose levels was measured from tail vein using a blood glucose meter (AccuChek Active, Roche Diagnostics), and the area under the curve of a temporal blood glucose curve was calculated. From the calculated area under the blood glucose curve, the area under the blood glucose curve of a negative control group to which no glucose solution was administered was subtracted, and inhibitory activity against blood glucose increase of a control group to which only the 10% Gelucire solution and glucose solution were administered was calculated as a percentage, thereby evaluating the glucose tolerance improvement efficacy of a drug.
The results are shown in Table 3, in which the glucose tolerance improvement effect represented at a dose of 10 mg/kg was represented by classifying into three groups, under 30%, more than 30% under 40%, and more than 40%. A significant glucose tolerance improvement effect was identified in 22 compounds on which the experiment was carried out, and among those compounds, 16 compounds represented an excellent in vivo activity of 30% inhibitory dose of 10 mg/kg or less. In the following Table 3, A represents an inhibitory activity more than 40%, B represents an inhibitory activity more than 30% under 40% and C represents an inhibitory activity under 30%.

Bounds are passed on as bounds.

As to `CCc1cnc(N2CCC(CCCOc3cc(F)c(-c4noc(C)n4)c(F)c3)CC2)nc1` [Example 13, 3-(4-(3-(1-(5-ethylpyrimidin-2-yl)piperidin-4-yl)propoxy)-2,6-difluorophenyl)-5-methyl-1,2,4-oxadiazole], at Human GPR119, the Emax at 0.001 µM is 49.4% and the Emax at 0.01 µM was found to be 126%. The inhibition in vivo (usually the percentage by which the read-out fell short of the control) at 10 mg/kg in the experiment with C57BL/6 mouse is 30 to 40%.
For the compound `CC(C)c1noc(N2CCC(CCCOc3cc(F)c(C4=NCC(C)(C)O4)c(F)c3)CC2)n1` [Example 12, 5-(4-(3-(4-(5,5-dimethyl-4,5-dihydrooxazol-2-yl)-3,5-difluorophenoxy)propyl)piperidin-1-yl)-3-isopropyl-1,2,4-oxadiazole], at Human GPR119, the Emax at 0.001 µM came to 116% and the Emax at 0.01 µM worked out at 232%. For the same compound, in the experiment on C57BL/6 mouse, the inhibition in vivo at 10 mg/kg was more than 40%.
The matching figures for `CC(C)c1nc(-c2c(F)cc(OCCCC3CCN(c4ccc(C(F)(F)F)cn4)CC3)cc2F)no1` [Example 38, 3-(2,6-difluoro-4-(3-(1-(5-(trifluoromethyl)pyridin-2-yl)piperidin-4-yl)propoxy)phenyl)-5-isopropyl-1,2,4-oxadiazole]: 102%, 120% and less than 30%.
With `CCc1cnc(N2CCC(CCCOc3cc(F)c(-c4nnc(C)o4)c(F)c3)CC2)nc1` [Example 42, 2-(4-(3-(1-(5-ethylpyrimidin-2-yl)piperidin-4-yl)propoxy)-2,6-difluorophenyl)-5-methyl-1,3,4-oxadiazole], on Human GPR119, the Emax at 0.001 µM is 127% and the Emax at 0.01 µM turned out to be 150%. For the same compound, the inhibition in vivo at 10 mg/kg in the experiment with C57BL/6 mouse is more than 40%.
For `CCc1cnc(N2CCC(CCCOc3cc(F)c(C4=NC[C@H](C)O4)c(F)c3)CC2)nc1` [Example 4, (S)-2-(4-(3-(1-(5-ethylpyrimidin-2-yl)piperidin-4-yl)propoxy)-2,6-difluorophenyl)-5-methyl-4,5-dihydrooxazole], at Human GPR119, the Emax at 0.001 µM was 79.6% and the Emax at 0.01 µM was 167%. The inhibition in vivo at 10 mg/kg in the experiment with C57BL/6 mouse was less than 30%.
As to `CC(C)c1noc(N2CCC(CCCOc3cc(F)c(C4=NC[C@H](C)O4)c(F)c3)CC2)n1` [Example 11, (S)-5-(4-(3-(3,5-difluoro-4-(5-methyl-4,5-dihydrooxazol-2-yl)phenoxy)propyl)piperidin-1-yl)-3-isopropyl-1,2,4-oxadiazole], at Human GPR119, the Emax at 0.001 µM amounted to 184% and the Emax at 0.01 µM stood at 266%. Moreover, in the experiment with C57BL/6 mouse, the inhibition in vivo at 10 mg/kg is less than 30%.
